According to US20060106028A1, “Polycyclic aromatics and derivatives thereof and processes for their preparation” (priority 2004, published 2006):
≈ marks a conversion by molar mass, not a printed value. Like-named read-outs stand apart in the source and are kept apart here.

Experiments:
Type in all cases: cell-based
[1] = system: Staphylococcus aureus (ATCC™ 6538P); experiment: Antibacterial activity, MIC (NCCLS M7-A5); settings: MH medium, 35° C., 16 to 20 hours
[2] = system: Staphylococcus aureus MRS3 (ATCC™ 700699); experiment: Antibacterial activity, MIC (NCCLS M7-A5); settings: MH medium, 35° C., 16 to 20 hours
[3] = system: Enterococcus faecalis VRE-1 (ATCC™ 29212); experiment: Antibacterial activity, MIC (NCCLS M7-A5); settings: BHI+ medium
[4] = system: Enterococcus faecalis VRE-2 (ATCC™ 51299); experiment: Antibacterial activity, MIC (NCCLS M7-A5); settings: BHI+ medium, 35° C., 16 to 20 hours
[5] = system: Streptococcus pneumoniae (LSPQ 3412); experiment: Antibacterial activity, MIC (NCCLS M7-A5); settings: MH medium +2% lysed horse blood
[6] = system: Streptococcus pneumoniae PenR (LSPQ 3349); experiment: Antibacterial activity, MIC (NCCLS M7-A5); settings: MH medium +2% lysed horse blood
[7] = system: Clostridium difficile (ATCC™ 9689); experiment: Antibacterial activity, MIC (NCCLS M11-A5, anaerobic); settings: Clostridioides difficile
Method: Antibacterial activity of Compounds 1 and 2 (Table 7) was measured by determining the minimal inhibitory concentration (MIC) necessary to obtain a complete inhibition of bacteria growth in seven indicator strains, namely Staphylococcus aureus (ATCC™ 6538P), Staphylococcus aureus MRS3 (ATCC™ 700699), Enterococcus faecalis VRE-1 (ATCC™ 29212), Enterococcus faecalis VRE-2 (ATCC™ 51299), Escherichia coli (ATCC™ 25922), Streptococcus pneumoniae (LSPQ 3412) and Streptococcus pneumoniae PenR (LSPQ 3349). Indicator strains preparation and MIC determination were performed according to the National Committee for Clinical Laboratory Standards (NCCLS) guideline M7-A5 Methods for Dilution Antimicrobial Susceptibility Tests for Bacteria That Grow Aerobically; Approved Standard-Fifth Edition. (NCCLS document M7-A5, ISBN 1-56238-394-9; NCCLS, 940 West Valley Road, Suite 1400, Wayne, Pa. 19087-1898 USA), the content of which is incorporated herein by reference. MIC determination against C. difficile was performed according to National Committee for Clinical Laboratory Standards (NCCLS) guideline M11-A5 Methods for Antimicrobial Susceptibility Testing of Anaerobic Bacteria.
Compounds 1 and 2 were prepared as 100× stock solutions in DMSO, with concentrations ranging from 3.2 mg/mL to 0.003 mg/mL (a two-fold dilution series over 11 points). An aliquot of each 100× stock solution was diluted 50-fold in test medium described below to give a set of eleven (11) 2× solutions. 50 μL of each of the eleven 2× solutions was aliquoted into the corresponding well of a 12-well row, with the final well reserved for medium alone control.
Vancomycin (Sigma™), used as positive control compound, was prepared as 2× stock solutions in Mueller-Hinton test medium ranging from 64 μg/mL to 0.06 μg/ml (a two-fold dilution series over 11 points). An aliquot of 50 μL corresponding to each concentration (at 2×) was then transferred to 96-well microplates to obtain a series of eleven two-fold dilutions.
An isolated colony of each of the indicator strains was used to inoculate tubes containing 2 mL of test medium. […]

[8] = system: Saccharomyces cerevisiae FHCRC-50014; experiment: Antifungal activity, MIC (NCCLS M27-A); settings: FHCRC50014, after 24 hours, YPD medium
Method: (§1) Testing of antifungal activity was performed according to NCCLS method (NCCLS. Reference Method for Broth Dilution Antifungal Susceptibility Testing of Yeasts; Approved Standard. NCCLS document M27-A (ISBN 1-56238-328-0). NCCLS, 940 West Valley Road, Suite 1400, Wayne, Pa. 19087-1898 USA; www.nccls.org.). Compound 1 was prepared as 100× stock solutions in DMSO, with concentrations ranging from 3.2 mg/mL to 0.003 mg/mL (a two-fold dilution series over 11 points). An aliquot of each 100× stock solution was diluted 50-fold in test medium described below to give a set of eleven (11) 2× solutions. 50 μL of each of the eleven 2× solutions was aliquoted into the corresponding well of a 12-well row, with the final well reserved for medium alone control. Inoculum density for each indicator strain was adjusted to OD600=0.1 in 5 mL 0.85% saline, then further diluted 1/1000 in YPD medium. 50 μL of the final dilution (in test medium) of each indicator strain was added to each well of a 12-well row. This brings the final dilution of the test article or control compound in solution to 1×. The final inoculum was approximately 5×10^4 CFU/ml.
(§2) Bacterial strains Streptococcus pneumoniae LSPQ 3412 and LSPQ 3349 were obtained from the “Laboratoire de Sante Publique du Quebec”. Saccharomyces cerevisiae FHCRC-50014 and FHCRC-50514 were obtained from the “Fred Hutchison Cancer Research Center”.

[9] = system: Saccharomyces cerevisiae FHCRC-50514; experiment: Antifungal activity, MIC (NCCLS M27-A); settings: FHCRC50514, after 24 hours, YPD medium
Method: as §1, §2

[10] = system: HT-29 (colorectal carcinoma); experiment: In vitro tumor growth inhibition (GI50, propidium iodide); settings: Homo sapiens, 96 hrs
[11] = system: MDA-MB-231 (mammary gland adenocarcinoma); experiment: as above; settings: Homo sapiens, 96 hrs
[12] = system: PC-3 (prostate adenocarcinoma); experiment: as above; settings: 96 hrs
[13] = system: SF268 (CNS); experiment: as above; settings: Homo sapiens; SF-268; 96 hrs
[14] = system: Escherichia coli (ATCC™ 25922); experiment: Antibacterial activity (NCCLS M7-A5); settings: MH medium

| SMILES | MIC [1] [µg/mL] | MIC [2] [µg/mL] | MIC ([3]; 35° C., 16 to 20 hours) [µg/mL] | MIC ([3]; when tested as control with Compound 2) [µg/mL] | MIC [4] [µg/mL] | MIC [5] [µg/mL] | MIC [6] [µg/mL] | MIC [7] [µg/mL] | MIC [8] [µg/mL] | MIC [9] [µg/mL] | GI50 [10] [µM] | GI50 [11] [µM] | GI50 [12] [µM] | GI50 [13] [µM] | MIC ([7]; Brucella medium with hemin, vitamin K1 and 5% lysed horse blood, read-out: MIC) [µg/mL] | Antibacterial activity [14] |
| --- | --- | --- | --- | --- | --- | --- | --- | --- | --- | --- | --- | --- | --- | --- | --- | --- |
| CN[C@H](CC(C)C)C(=O)N[C@H]1C(=O)N[C@@H](CC(N)=O)C(=O)N[C@H]2C(=O)N[C@H]3C(=O)N[C@H](C(=O)N[C@H](C(=O)O)c4cc(O)cc(O)c4-c4cc3ccc4O)[C@H](O)c3ccc(c(Cl)c3)Oc3cc2cc(c3O[C@@H]2O[C@H](CO)[C@@H](O)[C@H](O)[C@H]2O[C@H]2C[C@](C)(N)[C@H](O)[C@H](C)O2)Oc2ccc(cc2Cl)[C@H]1O [Vancomycin, reference compound] | 1 (≈ 0.69 µM) | 4 (≈ 2.76 µM) | 8 (≈ 5.52 µM) | 4 (≈ 2.76 µM) | 32 (≈ 22.1 µM) | 0.5 (≈ 0.345 µM) | 0.5 (≈ 0.345 µM) | 0.5 (≈ 0.345 µM) | – | – | – | – | – | – | – | – |
| OC(Cn1cncn1)(Cn1cncn1)c1ccc(F)cc1F [Fluconazole, reference compound] | – | – | – | – | – | – | – | – | 8 (≈ 26.1 µM) | 0.25 to 0.5 (≈ 0.816 to 1.63 µM) | – | – | – | – | – | – |
| CCC(C)c1cc2c(=O)c3ccc4c(OC)c5c(=O)c6c(O)ccc(O)c6c(=O)c5c(O)c4c3c(=O)c2c(=O)n1CC(=O)N1CC(C(=O)OC)NC(=O)C1C (stereo not shown) [Compound 2] | 0.0625 (≈ 0.0831 µM) | 0.125 (≈ 0.166 µM) | 1 (≈ 1.33 µM) | – | 1 (≈ 1.33 µM) | 1 (≈ 1.33 µM) | 1 (≈ 1.33 µM) | – | – | – | 16.1 | 4.04 | 4.61 | 2.63 | 2 (≈ 2.66 µM) | inactive |
